3 compounds from paper PMC8378262 (Journal of controlled release : official journal of the …, 2021) can be followed below.

One data set deals with ROCK-II (Homo sapiens, UniProt O75116). Briefly: Cell-free Rho-associated kinase activity. The class given is biochemical.
The test system of a further data set is PAH-SMC. Put plainly: Antiproliferative effects, Cell Counting Kit-8, PAH-SMC. The format is cell-based, human.
A short description of data set [1]: Pharmacokinetics in rat plasma after intravenous administration. The format is in vivo, Sprague Dawley rats.
Data set [2] addresses T1, bactosomal human NADPH-CYP reductase (Homo sapiens, UniProt P16435).
T1 sequence (P16435 1-677): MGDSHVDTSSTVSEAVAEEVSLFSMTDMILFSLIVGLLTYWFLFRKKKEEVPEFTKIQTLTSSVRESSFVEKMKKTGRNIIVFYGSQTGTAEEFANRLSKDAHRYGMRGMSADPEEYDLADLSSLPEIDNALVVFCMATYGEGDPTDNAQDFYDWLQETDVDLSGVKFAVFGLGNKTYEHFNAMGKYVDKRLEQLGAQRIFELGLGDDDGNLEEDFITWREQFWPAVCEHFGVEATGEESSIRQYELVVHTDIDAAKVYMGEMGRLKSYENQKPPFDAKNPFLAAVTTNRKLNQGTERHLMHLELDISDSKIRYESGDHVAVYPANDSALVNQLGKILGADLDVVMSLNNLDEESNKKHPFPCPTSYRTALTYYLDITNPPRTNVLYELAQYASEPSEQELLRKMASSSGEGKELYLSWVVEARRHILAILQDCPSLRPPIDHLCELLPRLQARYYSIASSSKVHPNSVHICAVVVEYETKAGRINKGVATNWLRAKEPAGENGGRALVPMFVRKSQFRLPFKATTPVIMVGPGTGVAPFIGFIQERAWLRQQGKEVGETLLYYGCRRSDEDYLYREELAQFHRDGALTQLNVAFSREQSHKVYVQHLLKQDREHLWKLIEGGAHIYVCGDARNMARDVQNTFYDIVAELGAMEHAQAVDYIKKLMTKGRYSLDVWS
Put plainly: Enzymatic reduction assay of FasPRO, LC-MS/MS. The class given is in vitro ADME.

Another data set relates to PAH-SMCs. Put plainly: Bioreduction of FasPRO in cultured PAH-SMCs. The format is cell-based, human.
The next data set concerns PAH-ECs. Put plainly: Bioreduction of FasPRO in cultured PAH-ECs. The format is cell-based, human. Conditions: 24 h incubation.
Another data set relates to N-SMC. Put plainly: Antiproliferative effects, Cell Counting Kit-8, N-SMC. The class given is cell-based, human.
Another data set has as its system PAH-EC. Briefly: cells. The class given is cell-based. The following applies: Homo sapiens, 24 h.
The subject of data set [3] is cGMP. Put plainly: Intracellular cGMP. The format is cell-based, human. Conditions: for intracellular level of cGMP: PAH-SMCs, 0.1–0.001 μM.
The subject of data set [4] is cGMP. Briefly: Intracellular cGMP. The format is cell-based, human. The following applies: PAH-ECs.
In data set [5] the test system is phospho-MYPT1. Put plainly: Myosin phosphatase-targeting protein phosphorylation. The format is cell-based, human. Conditions: PAH-SMCs, 1.0 μM, 24 h.
Data set [6] relates to phospho-MYPT1. The data set is described as above. The class given is cell-based, human. The following applies: PAH-ECs, 1.0 μM.
The mark [7] stands for this setting: Homo sapiens, 24 h, read-out: PAH-SMC (IC50) Normoxia, normoxia, 24 h treatment.
[8] abbreviates: Homo sapiens, 24 h, read-out: N-SMC (IC50) Normoxia.
The mark [9] stands for this setting: read-out: PAH-EC (IC50) Hypoxia.
Setting [10] is: read-out: PAH-EC (IC50) Normoxia.
The mark [11] stands for this setting: male, Sprague-Dawley, rat, plasma, iv, 3 mg/kg.

Each structure is given as a SMILES string. Where “and” joins values, the source holds several entries; their conditions need not be identical. Equal entries are not always repeated. Where two headings read alike, the source gives them in different places.

Sequence of ROCK-II (O75116 whole entry, species assumed): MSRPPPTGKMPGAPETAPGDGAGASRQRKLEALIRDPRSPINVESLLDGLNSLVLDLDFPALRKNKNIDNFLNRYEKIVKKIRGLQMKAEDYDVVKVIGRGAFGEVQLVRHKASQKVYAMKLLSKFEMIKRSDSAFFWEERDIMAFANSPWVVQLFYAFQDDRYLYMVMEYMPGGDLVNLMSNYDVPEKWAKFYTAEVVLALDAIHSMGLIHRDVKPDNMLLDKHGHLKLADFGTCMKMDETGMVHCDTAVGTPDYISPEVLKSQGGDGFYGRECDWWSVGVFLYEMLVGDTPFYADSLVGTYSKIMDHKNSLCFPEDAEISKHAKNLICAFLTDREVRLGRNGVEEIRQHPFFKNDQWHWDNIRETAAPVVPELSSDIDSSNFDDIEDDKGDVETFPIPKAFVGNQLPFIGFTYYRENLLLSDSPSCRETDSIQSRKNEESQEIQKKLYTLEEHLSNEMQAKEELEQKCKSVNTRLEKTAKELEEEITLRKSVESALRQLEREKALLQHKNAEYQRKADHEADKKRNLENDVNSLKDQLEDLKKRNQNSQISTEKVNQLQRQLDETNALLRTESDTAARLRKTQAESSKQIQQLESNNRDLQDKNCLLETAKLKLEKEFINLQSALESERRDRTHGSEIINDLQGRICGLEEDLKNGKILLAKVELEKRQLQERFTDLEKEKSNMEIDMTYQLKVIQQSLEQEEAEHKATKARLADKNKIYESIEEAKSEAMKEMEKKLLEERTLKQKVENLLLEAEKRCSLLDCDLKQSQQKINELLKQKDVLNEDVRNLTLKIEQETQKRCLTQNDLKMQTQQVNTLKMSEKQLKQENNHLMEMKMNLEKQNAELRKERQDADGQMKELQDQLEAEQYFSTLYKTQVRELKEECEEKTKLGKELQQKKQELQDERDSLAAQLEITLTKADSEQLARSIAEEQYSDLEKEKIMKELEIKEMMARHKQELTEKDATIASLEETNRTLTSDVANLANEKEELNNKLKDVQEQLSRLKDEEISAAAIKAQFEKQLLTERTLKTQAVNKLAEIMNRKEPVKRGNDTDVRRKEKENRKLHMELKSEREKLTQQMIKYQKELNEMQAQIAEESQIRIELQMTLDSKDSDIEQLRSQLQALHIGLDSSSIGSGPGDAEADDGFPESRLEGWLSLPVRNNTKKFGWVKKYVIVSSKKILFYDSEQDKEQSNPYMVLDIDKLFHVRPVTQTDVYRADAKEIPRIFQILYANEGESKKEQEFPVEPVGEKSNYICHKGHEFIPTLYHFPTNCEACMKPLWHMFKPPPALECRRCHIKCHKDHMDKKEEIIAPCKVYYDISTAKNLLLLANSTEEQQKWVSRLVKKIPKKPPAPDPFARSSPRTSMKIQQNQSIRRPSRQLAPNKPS

With `O=c1[nH]ccc2c(S(=O)(=O)N3CCCNCC3)cccc12` [FasOH, reference compound], the “inhibition of the kinase activity of ROCK-II (comparison in words)” value on ROCK-II (1.0 mU ROCK-II, 10 μM ATP) is on record as “equal potency”. For the same compound, the IC50 is 10.3 ± 2.6 µM in the data set with PAH-SMC (Homo sapiens, 24 h, read-out: PAH-SMC (IC50) Hypoxia) and 6.9 µM with PAH-SMC (Homo sapiens, 24 h, read-out: PAH-SMC (IC50) Normoxia). Also, the “maximum plasma concentration (Cmax) of FasOH as share of that of the parent drug” value in data set [1] (rats given intravenous fasudil 3 mg/kg) was 37~52%.

Regarding `O=[N+]([O-])c1ccc(COc2nccc3c(S(=O)(=O)N4CCCNCC4)cccc23)cc1` [FasPRO, 5-((1,4-diazepan-1-yl)sulfonyl)-1-((4-nitrobenzyl)oxy)isoquinoline], the “reduction in ROCK-II kinase activity on addition of the 4-nitrobenzyl group to the hydroxyl group of FasOH” value on ROCK-II (relative to FasOH) turned out to be 15 fold. Moreover, the “prodrug converted into FasOH or fasudil” value in [2] (hypoxia (0.1% O2), after 24 h of reaction) is listed as “More than 60%”. The “reduction of FasPRO by the reductase” value in data set [2] (normoxia, any of the time points) is “did not occur”. Besides, the “activation of FasPRO” value in the data set on PAH-SMCs (0.1% O2) was “activated”; in the data set on PAH-SMCs (1% and 10% O2), “not at 1% and 10% O2”. The “fragments of FasPRO after bioreduction in cell lysate” value in the data set on PAH-SMCs (12 h, hypoxia) is on record as “FasOH (major fragment) or fasudil (minor fragment)”. Further, the “content of FasPRO in cells” value was “decreased” in the data set on PAH-SMCs (hypoxia, 24 h incubation, versus normoxia) and “decreased” in the data set with PAH-ECs (hypoxia, versus normoxia). The “fragmentation of FasPRO in cells” value in the data set on PAH-SMCs (normoxia, 24 h incubation) is “did not undergo significant fragmentation”; in the data set with PAH-ECs (normoxia), “did not undergo significant fragmentation”. For the same compound, the IC50 amounted to 53.5 µM in the data set on PAH-SMC (setting [7]); 1.04 ± 0.1 µM with N-SMC (Homo sapiens, 24 h, read-out: N-SMC (IC50) Hypoxia); 248 ± 28.9 µM in the data set on N-SMC (setting [8]); 25.4 ± 4.8 µM with PAH-EC (setting [9]); 2720 ± 50.9 µM with PAH-EC (setting [10]). In addition, the “concentrations at which an antiproliferative effect was observed” value in the data set with PAH-SMC (normoxia, cells not given) was more than 100 µM. The “intracellular level of cGMP” value is listed as “dose-dependently increased” in the data set with cGMP [3] (hypoxia), “did not improve cGMP secretion” in the data set with cGMP [3] (normoxia), “dose-dependently increased” with cGMP [4] (hypoxia) and “did not improve cGMP secretion” with cGMP [4] (normoxia). For the same compound, the “hypoxia-driven phosphorylation of MYPT1” value in the data set with phospho-MYPT1 [5] and in the data set with phospho-MYPT1 [6] was “reversed the process” each time. Moreover, the phospho-MYPT-1 level result in the data set with phospho-MYPT1 [5] (normoxia) and in the data set with phospho-MYPT1 [6] (normoxia) was “did not cause any changes” in each case. For the same compound, the “terminal half-life of FasPRO relative to that of fasudil” value in data set [1] (Sprague-Dawley rats, intravenous, 3 mg/kg) is 36 fold and ~ 36 fold. The same compound came in with an AUC(0-inf) in data set [1] (setting [11]) of 951 ± 137 ng·h/mL. This compound registered a C0 in data set [1] (setting [11]) of 471 ± 122 ng/mL. In [1] (setting [11]), the Vd was 10.1 ± 4 L/kg. In [1] (setting [11]), this compound had a clearance of 18.3 mL/min/kg. The same compound returned a half-life in data set [1] (male, Sprague-Dawley, rat, plasma, iv, 3 mg/kg, t1/2, Sprague-Dawley rats) of more than 7 h. In addition, the “fasudil in the blood of FasPRO-treated rats” value in data set [1] (remaining two of four rats, FasPRO iv 3 mg/kg) is given as “not detectable”.

On to `O=S(=O)(c1cccc2cnccc12)N1CCCNCC1` [Fasudil, reference compound], for which the half-maximal inhibitory concentration (IC50) in the data set with PAH-SMC (setting [7]) amounted to 4.9 µM; in the data set with PAH-SMC (read-out: PAH-SMC (IC50) Normoxia, normoxia, 24 h treatment) it was 4.95 ± 1.3 µM; in the data set with N-SMC (setting [8]) it was 2.8 ± 0.6 µM; with N-SMC (read-out: N-SMC (IC50) Hypoxia, hypoxia (0.1% O2), 24 h treatment) it was 1.68 ± 0.5 µM; with PAH-EC (setting [9]), 34.1 ± 5.9 µM; in the data set with PAH-EC (setting [10]), 16 ± 1.2 µM. Moreover, the “intracellular level of cGMP” value in the data set on cGMP [3] (hypoxia), in the data set on cGMP [3] (normoxia), in the data set on cGMP [4] (hypoxia) and in the data set with cGMP [4] (normoxia) was “dose-dependently increased” each time. Moreover, the “increase in cGMP levels in PAH-SMCs compared to PAH-ECs” value in the data set with cGMP [3] (fasudil preincubation) was found to be 5 fold. Besides, the “hypoxia-driven phosphorylation of MYPT1” value with phospho-MYPT1 [5] and in the data set on phospho-MYPT1 [6] was “reversed the process” throughout. In addition, in data set [1] (setting [11]), the AUC(0-inf) was 363 ± 54.1 ng·h/mL. In addition, the C0 in data set [1] (setting [11]) came out at 1360 ± 368 ng/mL. The same compound registered a Vd in data set [1] (setting [11]) of 0.9 ± 0.2 L/kg. In data set [1] (setting [11]), the clearance is 46.7 mL/min/kg.
